Earlier results on 2 compounds are cited in PubChem BioAssay AID1259409 (Chemical Carcinogenesis Research Information System (CCRIS), 2018).

This data set concerns rodent chemically induced tumor inhibition, incidence and multiplicity. The data set can be described thus: CCRIS tumor inhibitor studies.

Turning to `C[Se]CCC(N)C(=O)O` (centres undefined), the “tumour outcome (control, treated, inhibition, significance)” value runs as follows: (Carcinogen: 3'-METHYL-4-DIMETHYLAMINOAZOBENZENE, 55-80-1, Dose [Inhibitor]: 118 UG SELENIUM AS HIGH SELENIUM YEAST/GM IN DIET DAILY STARTING 1 WK PRIOR TO START OF CARCINOGEN TREATMENT AND CONTINU, Route [Inhibitor]: ORAL, Species: RAT, Strain/Sex: SPRAGUE-DAWLEY/MALE, Target Tissue: Type of Lesion: LIVER: ADENOCARCINOMA, Dose [Carcinogen]: 0.05% IN DIET DAILY FOR 8 WK, Promoter: NONE USED) 11/12 (92%), 9/14 (64%), 30%, p 0.04; (Carcinogen: 4-(METHYLNITROSAMINO)-1-(3-PYRIDYL)-1-BUTANONE, 64091-91-4, Dose [Inhibitor]: 0, 3.75 PPM IN DIET FOR 3 WK BEGINNING 1 WK PRIOR TO CARCINOGEN DOSE (STUDY DURATION: 18 WK), Route [Inhibitor]: ORAL, Species: MOUSE, Strain/Sex: STRAIN-A/FEMALE, Target Tissue: Type of Lesion: LUNG: TUMOR, Dose [Carcinogen]: 10 UMOL IN 0.1 ML SALINE ONCE, Promoter: NONE USED) 100%, 96%, 4%, not significant; (Carcinogen: 4-(METHYLNITROSAMINO)-1-(3-PYRIDYL)-1-BUTANONE, 64091-91-4, Dose [Inhibitor]: 0, 3.75 PPM IN DIET FOR 15 WK BEGINNING 1 WK POST CARCINOGEN DOSE (STUDY DURATION: 18 WK), Route [Inhibitor]: ORAL, Species: MOUSE, Strain/Sex: STRAIN-A/FEMALE, Target Tissue: Type of Lesion: LUNG: TUMOR, Dose [Carcinogen]: 10 UMOL IN 0.1 ML SALINE ONCE, Promoter: NONE USED) 100%, 100%, 0%, not significant; (Carcinogen: 7,12-DIMETHYLBENZ[A]ANTHRACENE (DMBA) [57-97-6], Dose [Inhibitor]: 20 UG/D GIVEN 2 WK BEFORE DMBA AND DAILY FOR 1 WK (STUDY DURATION: 120 D), Route [Inhibitor]: ORAL (GAVAGE), Species: RAT, Strain/Sex: WISTAR/FEMALE (12,?)/(12,12), Target Tissue: Type of Lesion: MAMMARY GLAND: CARCINOMA, Dose [Carcinogen]: 12 MG ONCE (STUDY DURATION: 120 D)) 33%, 0%, 100%; (Carcinogen: 7,12-DIMETHYLBENZ[A]ANTHRACENE, 57-97-6, Dose [Inhibitor]: 0, 0.2 PPM IN DIET BEGINNING 3 D PRIOR TO CARCINOGEN DOSE AND CONTINUING FOR 8 MO (STUDY DURATION: 8 MO), Route [Inhibitor]: ORAL, Species: MOUSE, Strain/Sex: BALB/FEMALE, Target Tissue: Type of Lesion: MAMMARY GLAND: ADENOCARCINOMA, Dose [Carcinogen]: 1 MG/WK FOR 6 WK, Promoter: NONE USED) 12/31 (39%), 6/21 (29%), 26%, not calculated; (Carcinogen: 7,12-DIMETHYLBENZ[A]ANTHRACENE, 57-97-6, Dose [Inhibitor]: 0, 2 PPM IN DIET BEGINNING 3 D PRIOR TO CARCINOGEN DOSE AND CONTINUING FOR 8 MO (STUDY DURATION: 8 MO), Route [Inhibitor]: ORAL, Species: MOUSE, Strain/Sex: BALB/FEMALE, Target Tissue: Type of Lesion: MAMMARY GLAND: ADENOCARCINOMA, Dose [Carcinogen]: 1 MG/WK FOR 6 WK, Promoter: NONE USED) 12/31 (39%), 6/23 (26%), 33%, not calculated. The “tumour outcome (control, treated, inhibition, significance)” value (Carcinogen: AZOXYMETHANE [25843-45-2], Dose [Inhibitor]: 10 PPM IN DIET FOR 56 WK BEGINNING 2 WK PRIOR TO FIRST CARCINOGEN DOSE (STUDY DURATION: 56 WK), Route [Inhibitor]: ORAL, Species: RAT, Strain/Sex: F344/MALE, Target Tissue: Type of Lesion: COLON: ADENOMA OR ADENOCARCINOMA, Dose [Carcinogen]: 15 MG/KG BW 1X/WK FOR 2 WK (STUDY DURATION: 56 WK), Promoter: NONE) is 76%, 64%, 16%, not significant; the “tumour outcome (control, treated, inhibition, significance)” value (Carcinogen: AZOXYMETHANE [25843-45-2], Dose [Inhibitor]: 15 PPM IN DIET FOR 56 WK BEGINNING 2 WK PRIOR TO FIRST CARCINOGEN DOSE (STUDY DURATION: 56 WK), Route [Inhibitor]: ORAL, Species: RAT, Strain/Sex: F344/MALE, Target Tissue: Type of Lesion: COLON: ADENOMA OR ADENOCARCINOMA, Dose [Carcinogen]: 15 MG/KG BW 1X/WK FOR 2 WK (STUDY DURATION: 56 WK), Promoter: NONE) is reported as 76%, 89%, -17%, not significant; the “tumour outcome (control, treated, inhibition, significance)” value (Carcinogen: N-METHYL-N-NITROSOUREA, 684-93-5, Dose [Inhibitor]: 5 PPM IN DIET DAILY FOR 128 D STARTING 7 D AFTER CARCINOGEN TREATMENT AND CONTINUING FOR DURATION OF STUDY (STUDY DURATI, Route [Inhibitor]: ORAL, Species: RAT, Strain/Sex: SPRAGUE-DAWLEY/FEMALE, Target Tissue: Type of Lesion: MAMMARY GLAND: CARCINOMA, Dose [Carcinogen]: 50 MG/KG BW IN ACIDIFIED SALINE (PH 4.0) ONCE AT AGE 50 D, Promoter: NONE USED) is reported as 90%, 95%, -6%, not significant; the “tumour outcome (control, treated, inhibition, significance)” value (Carcinogen: N-METHYL-N-NITROSOUREA, 684-93-5, Dose [Inhibitor]: 6 PPM IN DIET DAILY FOR 128 D STARTING 7 D AFTER CARCINOGEN TREATMENT AND CONTINUING FOR DURATION OF STUDY (STUDY DURATI, Route [Inhibitor]: ORAL, Species: RAT, Strain/Sex: SPRAGUE-DAWLEY/FEMALE, Target Tissue: Type of Lesion: MAMMARY GLAND: CARCINOMA, Dose [Carcinogen]: 50 MG/KG BW IN ACIDIFIED SALINE (PH 4.0) ONCE AT AGE 50 D, Promoter: NONE USED) is given as 90%, 80%, 11%, not significant; the “tumour outcome (control, treated, inhibition, significance)” value (Carcinogen: NONE USED, Dose [Inhibitor]: 1 PPM IN DIET DAILY STARTING AT AGE 13.8 MO AND CONTINUING FOR LIFE (STUDY DURATION: LIFE), Route [Inhibitor]: ORAL, Species: MOUSE, Strain/Sex: C3H/FEMALE, Target Tissue: Type of Lesion: MAMMARY GLAND: ADENOCARCINOMA, Promoter: NONE USED) is given as 20/26 (77%), 12/26 (46%), 40%, p<0.05; the “tumour outcome (control, treated, inhibition, significance)” value (Carcinogen: NONE USED, Dose [Inhibitor]: 1 PPM IN DIET DAILY STARTING AT WEANING AND CONTINUING FOR LIFE (STUDY DURATION: LIFE), Route [Inhibitor]: ORAL, Species: MOUSE, Strain/Sex: C3H/FEMALE, Target Tissue: Type of Lesion: MAMMARY GLAND: ADENOCARCINOMA, Promoter: NONE USED) was 20/26 (77%), 7/26 (27%), 65%, p<0.005. For the same compound, the “tumour outcome (control, treated, inhibition, significance)” value (Carcinogen: NONE USED, Dose [Inhibitor]: 1 PPM IN DIET DAILY STARTING AT WEANING AND CONTINUING THROUGH AGE 13.8 MO FOL LOWED BY CONTROL DIET FOR LIFE (STUDY DUR, Route [Inhibitor]: ORAL, Species: MOUSE, Strain/Sex: C3H/FEMALE, Target Tissue: Type of Lesion: MAMMARY GLAND: ADENOCARCINOMA, Promoter: NONE USED) is on record as 20/26 (77%), 18/26 (69%), 10%, not significant.
Take `Cc1ccc(O)c(O)c1`: where the note is “Carcinogen: N-NITROSOBIS(2-HYDROXYPROPYL)AMINE, 53609-64-6, Dose [Inhibitor]: 0, 1.5% IN DIET FOR 30 WK BEGINNING POST CARCINOGEN TREATMENT (STUDY DURATION: 35 WK), Route [Inhibitor]: ORAL, Species: HAMSTER, Strain/Sex: SYRIAN/MALE, Target Tissue: Type of Lesion: PANCREAS: ADENOCARCINOMA, Dose [Carcinogen]: 500 MG/KG 1/WK FOR 5 WK, Promoter: NONE USED”, the “tumour outcome (control, treated, inhibition, significance)” value is recorded as 8/17 (47%), 9/19 (47%), 0%, not significant.
